From patent publication US20250360114A1, “INTRAVENOUS RIFABUTIN FORMULATION AND METHODS OF MAKING” (BIOVERSYS AG, priority 2024, published 2025) come the findings set out here.

Data set [1] in a line: Sub-visible particle test (10 mg/mL in 0.9% saline, particle counter). The format is physicochemical. As to the method: As these particle forming impurities are not described in the current pharmacopeial analytical methods, a new testing method was developed which is described in the methods below. In brief, rifabutin powder is dissolved in a mixture of dimethyl isosorbide, acetic acid and water. Subsequently, the obtained solution is diluted in 0.9% saline to a final concentration of 10 mg/mL and sub-visible particles are determined. The established limits for this test are: (1) not more than 12.5 particles/mL greater than 10 μm in diameter, and (2) not more than 3 particles/mL greater than 25 μm in diameter. Considering that current concentrations used for the intravenous administration of rifabutin are well below 10 mg/mL, these limits are much more stringent than the current pharmacopeial limits.
About 400 mg of rifabutin is dissolved in 2 mL of a mixture of isosorbide dimethyl ether (DMI) and acetic acid in water (40% DMI, 2.4% acetic acid). The obtained solution is filtered through a 0.2 μm Nylon filter and […] of 0.9% saline solution to a final concentration of 10 mg/mL. Solutions are stirred for 15 min on a roller mixer to allow sub-visible particle formation.
Sub-visible particles are determined using a suitable instrument (e.g. PAMAS SVSS particle counter). Particle numbers in the 10 mg/mL solution should be not more than 12.5 particles/mL greater 10 μm and not more than […] greater 25 μm to pass the test.

Data set [2] can be described thus: Solubility of rifabutin in alkanes. The format is physicochemical.
Setting [3] is: Method 1, Example 1 (pentane Soxhlet extraction).
The mark [4] stands for this setting: Method 2, Example 2 (pentane / silica gel columns, acetone elution).
[5] abbreviates: Method 3, Example 3 (dissolved in n-heptane 50° C., filtered).

On to `CO[C@H]1/C=C/O[C@@]2(C)Oc3c(C)c(O)c4c(c3C2=O)C2=NC3(CCN(CC(C)C)CC3)NC2=C(NC(=O)/C(C)=C\C=C\[C@H](C)[C@H](O)[C@@H](C)[C@@H](O)[C@@H](C)[C@H](OC(C)=O)[C@@H]1C)C4=O` [original, rifabutin], for which the “Sub-visible particles ≥10 μm” value in data set [1] (setting [3]) amounted to 138.3 particles/mL; in data set [1] (setting [4]), 1804.0 particles/mL; in data set [1] (setting [5]), 1804.0 particles/mL. In addition, the “Sub-visible particles ≥25 μm” value is listed as 16.3 particles/mL in data set [1] (setting [3]), 98.7 particles/mL in data set [1] (setting [4]) and 98.7 particles/mL in data set [1] (setting [5]).
Take `CO[C@H]1/C=C/O[C@@]2(C)Oc3c(C)c(O)c4c(c3C2=O)C2=NC3(CCN(CC(C)C)CC3)NC2=C(NC(=O)/C(C)=C\C=C\[C@H](C)[C@H](O)[C@@H](C)[C@@H](O)[C@@H](C)[C@H](OC(C)=O)[C@@H]1C)C4=O` [Rifabutin]: the Solubility result in data set [2] is listed as “low solubility”.
As to `CO[C@H]1/C=C/O[C@@]2(C)Oc3c(C)c(O)c4c(c3C2=O)C2=NC3(CCN(CC(C)C)CC3)NC2=C(NC(=O)/C(C)=C\C=C\[C@H](C)[C@H](O)[C@@H](C)[C@@H](O)[C@@H](C)[C@H](OC(C)=O)[C@@H]1C)C4=O` [purified, rifabutin], the “Sub-visible particles ≥10 μm” value in data set [1] (setting [3]) was 8.4 particles/mL; in data set [1] (setting [4]), 2.6 particles/mL; in data set [1] (setting [5]), 7.1 particles/mL. For the same molecule, the “Sub-visible particles ≥25 μm” value in data set [1] (setting [3]) was 0.4 particles/mL; in data set [1] (setting [4]) it was 0.0 particles/mL; in data set [1] (setting [5]) it was 0.2 particles/mL.
